Measured values from publication PMC5365060, “Construction of an octosyl acid backbone catalyzed by a radical S-adenosylmethionine enzyme and a phosphatase in the biosynthesis of high-carbon sugar nucleoside antibiotics” (Chemical Science, 2016).

Target: T1, PolH (Streptomyces aureochromogenes, UniProt J7G018)
T1 construct: pET28a, N-terminal His6 tag, E. coli; anaerobically purified, reconstituted [4Fe-4S]; motif C225XXXC229XXC232
Assay: HPLC time course of OAP and […]'-deoxyadenosine
Format: biochemical
Details: 3'-EUMP, sodium dithionite, anaerobic; SAM consumed as co-substrate

T1 sequence (J7G018 entry or part of it): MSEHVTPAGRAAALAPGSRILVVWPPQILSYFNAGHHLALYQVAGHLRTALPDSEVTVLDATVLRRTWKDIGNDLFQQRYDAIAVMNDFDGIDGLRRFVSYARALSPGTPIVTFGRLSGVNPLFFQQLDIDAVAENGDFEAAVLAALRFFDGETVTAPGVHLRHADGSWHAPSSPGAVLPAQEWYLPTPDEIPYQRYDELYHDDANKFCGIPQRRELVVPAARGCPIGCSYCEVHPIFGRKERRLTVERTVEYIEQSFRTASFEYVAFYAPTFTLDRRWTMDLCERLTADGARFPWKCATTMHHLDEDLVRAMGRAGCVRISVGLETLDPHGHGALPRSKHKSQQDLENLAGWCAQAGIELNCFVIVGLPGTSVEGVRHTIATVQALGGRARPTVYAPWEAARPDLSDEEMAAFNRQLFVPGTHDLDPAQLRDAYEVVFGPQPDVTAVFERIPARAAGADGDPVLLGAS

C[S+](CC[C@H](N)C(=O)O)C[C@H]1O[C@@H](n2cnc3c(N)ncnc32)[C@H](O)[C@@H]1O (stereo partly shown) [SAM]
HPLC time course of OAP and 5'-deoxyadenosine: indicating that SAM was being used as a co-substrate
